Test results published in patent US20240101548A1, “HYDROXAMATE COMPOUND, PREPARATION METHOD THEREFOR AND APPLICATION THEREOF” (SHENZHEN CHIPSCREEN BIOSCIENCES CO., LTD., priority 2020, published 2024).
pIC50: −log10 of the molar value. Read-outs that look alike come from different tables or passages of the source.

How the values were obtained:
[1] = system: IL-10-induced JAK1/TYK2 signal pathway; assay: IL-10-induced JAK1/TYK2 signal pathway STAT3-Luc reporter gene assay in U2OS cells; assay type: cell-based, human; conditions: Homo sapiens, read-out: Half inhibition dose (IC50) on IL-10-induced JAK1/TYK2 signal pathway
In short: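 U2OS cells co-transfected with IL-10R1-EGFP and STAT3-luciferase reporter plasmids; after 24 h, compound added (0–300 nM) for 6 h before 10 ng/mL human IL-10, then 24 h culture. Luciferase signal normalised to GFP for transfection efficiency; IC50 from inhibition rates.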

TYK2 JH2 domain = TYK2 JH2 domain (Homo sapiens (Human), UniProt P29597); assay: TYK2 JH2 domain FRET tracer assay; assay type: binding; conditions: FRET 665/615 nm; read-out: Inhibition activity IC50 on TYK2 JH2 domain
Sequence of TYK2 JH2 domain (P29597 589-875): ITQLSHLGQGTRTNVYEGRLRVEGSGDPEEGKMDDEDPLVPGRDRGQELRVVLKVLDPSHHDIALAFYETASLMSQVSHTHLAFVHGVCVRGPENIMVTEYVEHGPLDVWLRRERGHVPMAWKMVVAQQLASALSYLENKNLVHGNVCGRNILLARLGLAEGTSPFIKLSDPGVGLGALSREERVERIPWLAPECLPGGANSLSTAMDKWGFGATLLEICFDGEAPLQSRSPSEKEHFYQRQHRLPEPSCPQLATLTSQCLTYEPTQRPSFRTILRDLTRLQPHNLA
Protocol: Compound of the present invention formulated into different concentrations (series 3 times dilutions, started from 60 μM, 11 concentrations in total) was added to 384-well plate, followed by 5 μL of enzyme (i.e., TYK2 JH2 domain), Tb antibody (Cisbio) and tracer. The mixture was incubated at 25° C. for 60 min and left at 4° C. overnight.

[2] = system: INF-α-induced pSTAT5 in human PBMC; assay: INF-α-induced pSTAT5 in human PBMC (FACS, CD3 positive cells); assay type: cell-based; conditions: Homo sapiens, PBMC, IFN-α 30 ng/ml, read-out: Inhibition activity IC50 on INF-α-induced pSTAT5 in human PBMC
Protocol: hPBMC (available from Shanghai AoNeng Biotechnology Co., Ltd.) was inoculated in 96-well plate, added with compound of the present invention (at concentrations of 40 nM and 200 nM), incubated for 60 min (compound in concentrations of 2 nM, 10 nM respectively during the incubation); added with 30 ng/ml of stimulating factor IFN-α (BioLegend) together with anti-CD3 antibody (Biolegend) and then continued to be incubated for 30 min. After the incubation, each well was added with 1 mL of fixing solution (BD Biosciences), the obtained mixture was incubated for 10 min followed by centrifugation, added with 400 μL/well of Perm III (BD Biosciences), followed by further incubation at 4° C. for 30 min. The obtained mixture was added with mouse anti-human pSTAT5 antibody (Alexa Fluor® 647 Conjugate), followed by incubation at room temperature for 40 min. Fluorescence intensity of pSTAT5 in CD3 positive cells was detected by FACS.
Inhibition rate at individual compound concentration was calculated with the following formula:
Inhibition rate=(MFI value(IFN-α-stimulated control)−MI value(2/10 nM compound treated group)/MFI value(IFN-α-stimulated control)[…]
wherein: MFI value meant fluorescence intensity value; IFN-α-stimulated control meant control group which was operated similarly to the experimental groups but no compound of the present invention was added.

[3] = In-vivo pharmacokinetic test in mice; conditions: mouse, po; BALB/c female mice, gavage 10 mg/kg, plasma
Protocol: LC-MS/MS method is used to determine the drug concentration in the plasma of mice at different times after intragastric administration of the compound of the example. Relevant pharmacokinetic parameters are calculated to study the pharmacokinetic behavior of the compound of the present invention in mice, thereby evaluating the pharmacokinetic characteristics thereof.
Test animal was healthy adult BALB/c female mouse (provided by Chengdu Yaokang Biotechnology Co., Ltd.);
Compound administration and sample collection: compound was administered to BALB/c female mice by gavage (10 mg/kg). At 0.25, 0.5, 1, 2, 4, 6, 8, and 24 hours after administration, 60 μL of whole blood of the mouse fundus venous plexus were collected and centrifuged at 4000 rpm for 10 min to provide plasma.
Sample analysis: 10 μL of mouse plasma samples were respectively added with 290 μL of acetonitrile solution containing internal standard to precipitate proteins. After swirling for 10 min and centrifuging at 4000 rpm for 10 min, 200 μL of supernatant was added to 96-well plate, and analyzed by LC-MS/MS at an injection volume of 1 μL.

[4] = U2OS cells, STAT3-Luc reporter, IL-10 10 ng/mL
[5] = U2OS, U2OS cells, STAT3-Luc reporter, IL-10 10 ng/mL

CCONC(=O)c1cnc(Nc2cc(C)nc(C)n2)cc1Nc1ccc(C(F)(F)F)cc1N(C)S(C)(=O)=O [Example 202, 6-((2,6-dimethylpyrimidin-4-yl)amino)-N-ethoxy-4-((2-(N-methylmethanesulfonamido)-4-(trifluoromethyl)phenyl)amino)nicotinamide]
pIC50 [1, 4]: 9.39 | pIC50 (TYK2 JH2 domain): 10.22 | pIC50 [2]: > 8.70

CCONC(=O)c1cnc(Nc2cc(C)nc(C)n2)cc1Nc1cccc(-c2ncccn2)c1OC [Example 212]
pIC50 ([1]; U2OS): 9.57 | pIC50 (TYK2 JH2 domain): 10.30 | pIC50 [2]: > 8.70 | AUC [3]: 16.3 µM·h | Cmax [3]: 15 µM

CCONC(=O)c1cnc(Nc2cc(C)nc(C)n2)cc1Nc1cc(F)cc(-c2ncccn2)c1OC [Example 215, 6-((2,6-dimethylpyrimidin-4-yl)amino)-N-ethoxy-4-((5-fluoro-2-methoxy-3-(pyrimidin-2-yl)phenyl)amino)nicotinamide]
pIC50 [1, 5]: 9.99 | pIC50 (TYK2 JH2 domain): 10.15 | pIC50 [2]: > 8.70 | AUC [3]: 25.8 µM·h | Cmax [3]: 13.6 µM

CCONC(=O)c1cnc(NC(=O)C2CC2)cc1Nc1cccc(-c2ncc(Cl)cn2)c1OC [Example 219, 4-((3-(5-chloropyrimidin-2-yl)-2-methoxyphenyl)amino)-6-(cyclopropylcarboxamido)-N-ethoxy nicotinamide]
pIC50 [1, 5]: 8.96 | pIC50 (TYK2 JH2 domain): 9.89 | pIC50 [2]: > 8.70 | AUC [3]: 16.8 µM·h | Cmax [3]: 10.3 µM

CCONC(=O)c1cnc(Nc2cc(C)nc(C)n2)cc1Nc1cccc(-c2ncc(C)cn2)c1OC [Example 238, 6-((2,6-dimethylpyrimidin-4-yl)amino)-N-ethoxy-4-((2-methoxy-3-(5-methylpyrimidin-2-yl)phenyl)amino)nicotinamide]
pIC50 [1, 4]: 9.77 | pIC50 [2]: > 8.70 | AUC [3]: 39.9 µM·h | Cmax [3]: 15.1 µM
